Measurements as given in patent US7041461B2 (H. Lundbeck A/S, priority 1998, dated 2006).
Entries after “also recorded” stand apart in the source; their conditions may differ. No end group written: not given here.

How the values were obtained:
SNORF2 (NPFF1) = target: T1, SNORF2 (NPFF1) (Rattus norvegicus, UniProt Q9EP86); assay: Voltage-clamp electrophysiology in Xenopus oocytes expressing SNORF2 (NPFF1) and chimeric Gαq/z; assay type: cell-based; conditions: for activation of oocytes injected with SNORF2 synthetic RNA: unrelated neuropeptides and neurotransmitters, concentration not given; for inward current response: 1 μM, holding potential −80 mV
T1 construct: from linearized plasmids or PCR products containing the complete coding region of the genes; expressed in transfected cells; host or cells: Xenopus laevis oocytes injected with synthetic RNA
Description: (§1) Oocytes were harvested from Xenopus laevis and injected with mRNA transcripts as previously described (Quick and Lester, 1994; Smith et al., 1997). […] Three to eight hours prior to recording, oocytes were injected with 500 pg Gαq/z mRNA in order to observe coupling to Ca^++ activated Cl^− currents. Dual electrode voltage clamp (Axon Instruments Inc.) was performed using 3 M KCl-filled glass microelectrodes having resistances of 1–2 Mohm. Unless otherwise specified, oocytes were voltage clamped at a holding potential of −80 mV. During recordings, oocytes were bathed in continuously flowing (1–3 ml/min) medium containing 96 mM NaCl, 2 mM KCl, 1.8 mM CaCl2, 1 mM MgCl2, and 5 mM HEPES, pH 7.5 (ND96). Drugs were applied either by local perfusion from a […] glass capillary tube fixed at a distance of 0.5 mm from the oocyte, or by switching from a series of gravity fed perfusion lines.
Heterologous expression of GPCRs in Xenopus oocytes has been widely used to determine the identity of signaling pathways activated by agonist stimulation (Gundersen et al., 1983; Takahashi et al., 1987). Activation of the phospholipase C (PLC) pathway is assayed by applying test compound in ND96 solution to oocytes previously injected with mRNA for the mammalian receptor and observing inward currents at a holding potential of −80 mV. The appearance of currents that reverse at −25 mV and display other properties of the Ca^++-activated Cl^− (chloride) channel is indicative of mammalian receptor-activation of PLC and release of IP3 and intracellular Ca^++.
Control oocytes receiving only G-protein synthetic RNA were unresponsive to these peptides. […] Similarly, SNORF2-like was renamed NPFF-like.

NPFF-1 receptor = target: T2, NPFF-1 receptor (Rattus norvegicus, UniProt Q9EP86); assay: Total inositol phosphate release in transiently transfected Cos-7 cells; assay type: cell-based
T2 construct: expressed in transfected cells; host or cells: Cos-7 cells, transient, intact cells

NPFF2 (hNPFF2) = target: T3, NPFF2 (hNPFF2) (Homo sapiens, UniProt Q9Y5X5); assay: Voltage-clamp electrophysiology in Xenopus oocytes expressing NPFF2 (NPFF-like) and chimeric Gαq/z; assay type: cell-based; conditions: 1 μM; oocytes with NPFF2 (NPFF-like) mRNA and Gαq/z; −80 mV
T3 construct: BO89, was determined to be a full length clone with no point mutations; expressed in transfected cells; host or cells: Xenopus laevis oocytes injected with synthetic mRNA
Description: Electrophysiological responses in voltage-clamped oocytes expressing NPFF2 mRNA. […] Oocytes were clamped at a holding potential of −80 mV.
For expression of NPFF2, mRNA transcripts were generated as described for NPFF1, using PCR products from ligation reactions or linearized DNA from B089 as DNA templates. Oocytes were injected with 5–50 ng NPFF2 mRNA and incubated as previously described.
as §1

[1] = target: rat spinal cord membrane receptor; assay: Radioligand binding to rat spinal cord membranes; conditions: * marks difference from NPFF1
Description: (§2) Transfected cells from culture flasks are scraped into 5 ml of 20 mM Tris-HCl, 5 mM EDTA, pH 7.5, and lysed by sonication. The cell lysates are centrifuged at 1000 rpm for 5 min. at 4° C., and the supernatant is centrifuged at 30,000× g for 20 min. at 4° C. […] Optimal membrane suspension dilutions, defined as the protein concentration required to bind less than 10% of the added radioligand, are added to 96-well polpropylene microtiter plates containing ^3H-labeled compound, unlabeled compounds, and binding buffer to a final volume of 250 μl. In equilibrium saturation binding assays membrane preparations are incubated in the presence of increasing concentrations of [^3H]-labeled compound.
(§3) Competition assay: 50 pM radioligand, 10–12 points. Binding reaction mixtures are incubated for 2 hr at 25° C., and the reaction stopped by filtration through a double layer of GF filters treated with 0.1% polyethyleneimine, using a cell harvester. Wash buffer: 50 mM Tris-HCl, 0.1% BSA. Radioactivity may be measured by scintillation counting and data are analyzed by a computerized non-linear regression program. Non-specific binding is defined as the amount of radioactivity remaining after incubation of membrane protein in the presence of 1 μM final concentration […]. Protein concentration may be measured by the Bradford method using Bio-Rad Reagent, with bovine serum albumin as a standard.
The binding profile of rat NPFF1 was compared to that of rat spinal cord membranes. […] (See * Table 2).

NPFF receptors = conditions: at a concentration of 10 μM; spinal cord membranes; cited from earlier work
[2] = target: T4, cloned rat NPFF1 receptor (Rattus norvegicus, UniProt Q9EP86); assay: Radioligand binding to cloned rat NPFF1 receptor, membranes of transiently transfected COS-7 cells; conditions: competition of [125I]D-Tyr-NPFF binding, transiently transfected COS-7 membranes
T4 construct: expressed in transfected cells; host or cells: COS-7 cells, transient; membranes
Description: as §2, with “[…],” for “are added to 96-well polpropylene microtiter plates containing ^3H-labeled compound,”
as §3
Cos-7 cells transiently expressing the gene encoding the novel rat NPFF1 receptor were used for pharmacological evaluation. […]

NPFF1 (SN2) = target: T5, NPFF1 (SN2) (Rattus norvegicus, UniProt Q9EP86); assay: Microphysiometric measurement of extracellular acidification rate in transiently transfected CHO cells; assay type: cell-based; conditions: CHO cells transfected with NPFF1 alone; read-out: EC50, increase in extracellular acidification rate
T5 construct: expressed in transfected cells; host or cells: CHO (CHO-K1) cells, transient
Excerpt: Microphysiometric response of CHO cells transiently transfected with either NPFF1 (SN2) alone or NPFF1 accompanied by Gq/Gz. […] In both FIGS. 17A and 17B control cells mock transfected with empty vector produced little if any response to drug even at the highest concentrations used. Responses are reported as percentage increase in the acidification rate as observed just prior to drug challenge (immediate prior basal rate).
General guidelines for transient receptor expression, cell preparation and microphysiometric recording are described elsewhere (Salon, J. A. and Owicki, J. A., 1996). Receptors and/or control vectors are transiently expressed in CHO-K1 cells, by liposome mediated transfection according to the manufacturers recommendations (Lipof ectAMINE, GibcoBRL, Gaithersburg, Md.), and maintained in Ham's F-12 complete (10% serum). […]
A standard recording protocol specifies a 100 μl/min flow rate, with a 2 min total pump cycle which includes a 30 sec flow interrruption during which the acidification rate measurement is taken. […] Ligand samples are then washed out and the acidification rates reported are expressed as a percentage increase of the peak response over the baseline rate observed just prior to challenge. […]

T3 sequence (Q9Y5X5 103-522): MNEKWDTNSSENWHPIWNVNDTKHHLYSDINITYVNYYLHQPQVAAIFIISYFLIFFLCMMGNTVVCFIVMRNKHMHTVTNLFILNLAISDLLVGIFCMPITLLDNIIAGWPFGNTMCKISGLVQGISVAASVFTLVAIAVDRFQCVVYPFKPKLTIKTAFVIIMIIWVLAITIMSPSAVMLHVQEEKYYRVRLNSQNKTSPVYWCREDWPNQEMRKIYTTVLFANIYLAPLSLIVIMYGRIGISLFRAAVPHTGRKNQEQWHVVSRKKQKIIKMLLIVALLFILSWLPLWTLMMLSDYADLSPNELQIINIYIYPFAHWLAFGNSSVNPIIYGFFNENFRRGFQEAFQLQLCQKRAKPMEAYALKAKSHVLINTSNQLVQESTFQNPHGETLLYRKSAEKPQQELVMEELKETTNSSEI
T1 sequence (Q9EP86 whole entry): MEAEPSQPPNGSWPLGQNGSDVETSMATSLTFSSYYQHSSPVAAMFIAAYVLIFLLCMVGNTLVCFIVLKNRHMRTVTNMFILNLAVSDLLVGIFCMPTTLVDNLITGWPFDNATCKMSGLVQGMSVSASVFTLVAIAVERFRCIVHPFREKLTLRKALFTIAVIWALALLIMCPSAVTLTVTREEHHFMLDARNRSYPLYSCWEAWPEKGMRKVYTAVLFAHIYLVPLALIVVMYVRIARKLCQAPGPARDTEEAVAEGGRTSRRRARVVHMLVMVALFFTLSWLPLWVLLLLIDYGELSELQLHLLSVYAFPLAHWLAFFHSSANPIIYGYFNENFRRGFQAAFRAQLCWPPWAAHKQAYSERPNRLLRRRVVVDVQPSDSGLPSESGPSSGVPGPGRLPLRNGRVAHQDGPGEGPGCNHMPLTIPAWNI
T2 sequence (Q9EP86 whole entry): as above
T4 sequence (Q9EP86 whole entry): as above
T5 sequence (Q9EP86 whole entry): as above

orexin B: unrelated neuropeptide
activation of oocytes injected with SNORF2 synthetic RNA (SNORF2 (NPFF1)): failed to activate

CC(C)C[C@H](NC(=O)[C@@H](N)Cc1ccccc1)C(=O)N[C@@H](Cc1ccccc1)C(=O)N[C@@H](CCC(N)=O)C(=O)N1CCC[C@H]1C(=O)N[C@@H](CCC(N)=O)C(=O)N[C@@H](CCCNC(=N)N)C(=O)N[C@@H](Cc1ccccc1)C(N)=O [NPFF(F-8-Fa)]
Emax, total IP release (NPFF-1 receptor; Cos-7 cells transfected with NPFF1 alone): approximately 200 % basal
Emax, total IP release (NPFF-1 receptor; Cos-7 cells transfected with NPFF1 receptor and Gq/Gz chimera): approximately 1500 % basal
inward current response (SNORF2 (NPFF1); oocytes with SNORF2 and Gαq/z): robust inward currents
threshold for activation of inward current (SNORF2 (NPFF1); oocytes with SNORF2 and Gαq/z): 30 nM

PYY: unrelated neuropeptide
activation of oocytes injected with SNORF2 synthetic RNA (SNORF2 (NPFF1)): failed to activate

orexin A: unrelated neuropeptide (QPLPDCCRQKTCSCRLYELLHGAGNHAAGILTL; ends and bridges not checked; cysteine pairing not given here; UniProt O43612 34-66, looked up)
inward current response (NPFF2 (hNPFF2)): failed to activate responses; also recorded: no response is observed

NCCc1c[nH]c2ccc(O)cc12 [5-HT]
activation of oocytes injected with SNORF2 synthetic RNA (SNORF2 (NPFF1)): failed to activate

substance P
pKi for rat spinal cord membrane receptor binding, MEAN [1]: 5.000
inhibition of [125I](1DMe)Y8Fa binding (NPFF receptors): No inhibition

CC(C)C[C@H](NC(=O)[C@H](CCCCN)NC(=O)[C@H](CCCN=C(N)N)NC(=O)[C@H](C)NC(=O)[C@H](CO)NC(=O)[C@H](CCCCN)NC(=O)[C@H](CCCN=C(N)N)NC(=O)[C@H](C)NC(=O)CNC(=O)[C@@H](NC(=O)[C@H](Cc1ccccc1)NC(=O)CNC(=O)CNC(=O)[C@@H](N)Cc1ccccc1)[C@@H](C)O)C(=O)N[C@@H](C)C(=O)N[C@@H](CC(N)=O)C(=O)N[C@@H](CCC(N)=O)C(=O)O [nociceptin]
pKi for cloned rat NPFF1 receptor binding in COS-7 cells, MEAN [2]: 5.000
pKi for rat spinal cord membrane receptor binding, MEAN [1]: 5.000
activation of oocytes injected with SNORF2 synthetic RNA (SNORF2 (NPFF1)): failed to activate

melanin concentrating hormone: unrelated neuropeptide
activation of oocytes injected with SNORF2 synthetic RNA (SNORF2 (NPFF1)): failed to activate

H-AGEGLSSPFWSLAAPQRF-NH2 [A18Fa]
EC50 (NPFF1 (SN2)): 150 nM
inward current response (SNORF2 (NPFF1); oocytes with SNORF2 and Gαq/z): robust inward currents
inward current response (NPFF2 (hNPFF2)): activated similar inward currents

NPY: unrelated neuropeptide
inward current response (NPFF2 (hNPFF2)): failed to activate responses; also recorded: no response is observed
inhibition of [125I](1DMe)Y8Fa binding (NPFF receptors): No inhibition

CN1CC[C@]23c4c5ccc(O)c4O[C@H]2[C@@H](O)C=C[C@H]3[C@H]1C5 [morphine]
inhibition of [125I](1DMe)Y8Fa binding (NPFF receptors): No inhibition

neurokinin A: unrelated neuropeptide
inward current response (NPFF2 (hNPFF2)): failed to activate responses; also recorded: no response is observed

AGEGLSSPYWSLAAPQRF-NH2 [[Y^9]A18Fa]
Ki ([2]; read-out: pKi for cloned rat NPFF1 receptor binding in COS-7 cells, MEAN (converted)): 27.7 nM
inward current response (SNORF2 (NPFF1); oocytes with SNORF2 and Gαq/z): displayed activity

YLFQPQRF-NH2 [Y8Fa]
inward current response (SNORF2 (NPFF1); oocytes with SNORF2 and Gαq/z): displayed activity

B1: CCK: unrelated neuropeptide (peptide, UniProt P06307 21-115, looked up)
Cholecystokinin: QPVPPADPAGSGLQRAEEAPRRQLRVSQRTDGESRAHLGALLARYIQQARKAPSGRMSIVKNLQNLDPSHRISDRDYMGWMDFGRRSAEEYEYPS
modifications: Cholecystokinin
notes: unrelated neuropeptide
activation of oocytes injected with SNORF2 synthetic RNA (SNORF2 (NPFF1)): failed to activate
